Test results: patent publication US10065934B2, “Substituted urea derivatives and pharmaceutical uses thereof” (SUNSHINE LAKE PHARMA CO., LTD., priority 2014, dated 2018)
Where two headings read alike, the source gives them in different places. Each block holds one molecule with its values, some of them ahead of it.

What was measured:
FLT3 kinase = molecular target: T1, FLT3 kinase (Homo sapiens, UniProt P36888); test: In vitro enzymatic inhibitory activity (kinase reaction, FAM-labeled peptide); assay type: biochemical; conditions: in vitro enzymatic inhibition
T1 sequence (P36888 27-993): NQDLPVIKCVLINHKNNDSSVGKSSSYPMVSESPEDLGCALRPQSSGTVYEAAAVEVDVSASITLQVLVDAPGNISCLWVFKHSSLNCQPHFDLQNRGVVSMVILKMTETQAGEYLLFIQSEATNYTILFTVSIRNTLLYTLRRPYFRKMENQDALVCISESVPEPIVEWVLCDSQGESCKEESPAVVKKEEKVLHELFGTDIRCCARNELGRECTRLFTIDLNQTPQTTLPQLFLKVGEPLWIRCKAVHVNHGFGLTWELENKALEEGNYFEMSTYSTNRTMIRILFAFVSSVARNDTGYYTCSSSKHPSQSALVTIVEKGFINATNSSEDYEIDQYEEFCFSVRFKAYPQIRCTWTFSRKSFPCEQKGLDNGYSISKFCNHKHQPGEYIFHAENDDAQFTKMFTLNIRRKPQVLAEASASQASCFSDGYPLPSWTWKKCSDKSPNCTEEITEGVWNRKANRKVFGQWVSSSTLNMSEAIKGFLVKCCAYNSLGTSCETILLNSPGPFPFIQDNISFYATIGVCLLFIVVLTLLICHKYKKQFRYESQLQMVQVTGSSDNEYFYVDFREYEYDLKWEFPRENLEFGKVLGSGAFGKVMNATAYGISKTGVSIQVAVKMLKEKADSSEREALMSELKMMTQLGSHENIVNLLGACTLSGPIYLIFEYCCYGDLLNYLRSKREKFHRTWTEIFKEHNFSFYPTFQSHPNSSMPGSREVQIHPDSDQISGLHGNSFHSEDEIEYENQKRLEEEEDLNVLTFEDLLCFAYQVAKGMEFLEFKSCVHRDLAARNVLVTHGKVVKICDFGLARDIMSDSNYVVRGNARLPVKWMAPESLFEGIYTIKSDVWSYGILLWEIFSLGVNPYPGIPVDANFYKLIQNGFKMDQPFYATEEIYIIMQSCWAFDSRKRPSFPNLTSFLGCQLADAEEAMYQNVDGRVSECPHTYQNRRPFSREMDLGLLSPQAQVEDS

MV-4-11 cell = test: In vitro cytology inhibitory activity (MV-4-11 cell proliferation, cell viability luminescence); assay type: cell-based; conditions: Homo sapiens, MV4-11; MV-4-11 cells, 72 h incubation
Method: Cell assay condition was shown below:
a. A complete medium was prepared and mixed well. b. Cell was recovered, and cell lines of between about two generations in good condition of growth were selected. c. The cell culture flasks were removed from the incubator, and the labeled cell name on the bottles, culture medium type and cell algebra were checked. d. The cell suspension was pipette into a centrifuge tube, and centrifuged at 800-1000 rpm for 3-5 minutes. e. Cell supernatant of the centrifuge tube was aspirated. f. Appropriate volume of culture medium was added into the centrifuge tube, and the cells were resuspended by gentle pipetting uniform. g. Vi-Cell XR cytometer was used for count. h. The cell suspension was adjusted to the appropriate concentration. i. The cell suspension was added to the bottom wall of the white 96-well plate, 100 microliters/well. Cells name, kind of board density and date were detailed labeled, and the culture plate was placed in CO2 incubator overnight.
2. Preparation and Addition of the Test Compounds
i) Preparation of test compound plates by diluting to 10 concentrations with DMSO: first, the test compound stock solution was prepared by dissolving a weighed compound in DMSO to a concentration of 10 mM, and then diluted to the concentration of 4 mM, which was then diluted to the concentration of 0.4 mM used as the highest concentration for testing with DMSO. The highest concentration was sequentially followed by 3-fold dilution for a total of 10 concentrations. Staurosporine was the positive control drug. ii) Addition of test compounds: a. 0.5 μL of test compound prepared above in compound plate was added into the cell culture plate that had been incubated overnight. Then the culture plate was incubated in an incubator at 37° C. for 72 hours.
3. Detection and Analysis
a. 72 hours after the compound treatment, cells was observed under an inverted microscope morphology, and cell growth state in DMSO control well was normal, there was no contamination. b. The cell culture plate was placed in equilibrium at room temperature for 30 minutes. c. The cell viability detection reagent at 100 μL/well was placed into culture plate. d. The mixture in culture plate was mixed two minutes in the vibration plate machine to induce cell lysis. e. 96-well plate was placed for 10 minutes at room temperature, making it stable luminescent signal. f. White base film was pasted on the bottom of the culture plate, and the plate was tested by using Flexstation3 (related to: light, integration time 500 ms). g. Experimental results were recorded and analyzed.

[1] = Evaluation of pharmacokinetic activity in male SD rats (iv and oral); assay type: in vivo; conditions: for Vd: read-out: Vss; for bioavailability: po 5 mg/kg vs iv 1 or 2 mg/kg
Method: 1. Preparation of the Test Compound Solutions
The test compound solutions were prepared using appropriate amounts of 5% DMSO, 5% KolliphorHS15 and 90% Saline to dissolve each compound completely.
140-190 g male SD rats were randomly divided into two groups. One group was administered through intravenous drug delivery with the dosage of 1.0 or 2.0 mg/kg, and the other group was administered by oral with the dosage of 5.0 mg/kg. For intravenous administration, caudal vein blood samples at the time points of 0.0833, 0.25, 0.5, 1.0, 2.0, 4.0, 6.0, 8.0 and 24 h were collected after drug administration (the time point of drug administration was set as 0 h); and for oral administration, caudal vein blood samples at the time points of 0.25, 0.5, 1.0, 2.0, 4.0, 6.0, 8.0 and 24 h were collected after drug administration (the time point of drug administration was set as 0 h). Appropriate range of standard curve was established according to the sample concentration, and the test compound concentrations in plasma sample were measured by LC-MS/MS analysis. Pharmacokinetic parameters were calculated by non-compartmental method using WinNonLin 6.3 software based on drug concentration-time curves.

SMILES: CC(C)(C)c1cc(NC(=O)Nc2ccc(C#Cc3ccc(OCCN4C[C@@H]5OCCO[C@@H]5C4)cc3)cc2)no1 [Example 24, 1-(5-(tert-Butyl)isoxazol-3-yl)-3-(4-((4-(2-((4aR,7aS)-tetrahydro-2H-[1,4]dioxino[2,3-c]pyrro 1-6(3H)-yl)ethoxy)phenyl)ethynyl)phenyl)urea]
IC50 (FLT3 kinase): 160 nM
AUClast ([1]; po, 5 mg/kg): 6770 ng·h/mL
Cmax ([1]; po, 5 mg/kg): 862 ng/mL
T1/2 ([1]; po, 5 mg/kg): 3.9 h
AUC(0-inf) ([1]; rat, plasma, iv, 1 mg/kg): 2160 ng·h/mL
AUC(0-t) ([1]; rat, plasma, iv, 1 mg/kg): 2130 ng·h/mL
Tmax ([1]; rat, plasma, iv, 1 mg/kg): 0.083 h
half-life ([1]; rat, plasma, iv, 1 mg/kg): 4.51 h
Cmax ([1]; rat, plasma, iv, 1 mg/kg, read-out: Cmax): 1340 ng/mL
Vd ([1]; rat, plasma, iv, 1 mg/kg): 1.69 L/kg
bioavailability ([1]; rat, plasma): 63.6%
AUC(0-inf) ([1]; rat, plasma, po, 5 mg/kg): 6870 ng·h/mL
Tmax ([1]; rat, plasma, po, 5 mg/kg): 4 h

SMILES: CN(C)C1CCN(CCOc2ccc(C#Cc3ccc(NC(=O)Nc4cc(C(C)(C)C)on4)cc3)cc2)CC1 [Example 14, 1-(5-(tert-Butyl)isoxazol-3-yl)-3-(4-((4-(2-(4-(dimethylamino)piperidin-1-yl)ethoxy)phenyl)ethynyl)phenyl)urea]
IC50 (FLT3 kinase): 72 nM
IC50 (MV-4-11 cell): 11.4 nM

SMILES: CC(C)(C)c1cc(NC(=O)Nc2ccc(C#Cc3cnn4ccc(OCCCN5CCOCC5)nc34)cc2)no1 [Example 6, 1-(5-(tert-Butyl)isoxazol-3-yl)-3-(4-((5-(3-morpholinopropoxy)pyrazolo[1,5-a]pyrimidin-3-yl)ethynyl)phenyl)urea]
IC50 (FLT3 kinase): 94 nM
IC50 (MV-4-11 cell): 3.1 nM

SMILES: CC(C)(C)c1cc(NC(=O)Nc2ccc(C#Cc3ccc(OCCCN4CCC5(COC5)C4)cc3F)cc2)no1 [Example 8, 1-(4-((4-(3-(2-Oxa-6-azaspiro[3.4]octan-6-yl)propoxy)-2-fluorophenyl)ethynyl)phenyl)-3-(5-(tert-butyl)isoxazol-3-yl)urea]
IC50 (FLT3 kinase): 61 nM
IC50 (MV-4-11 cell): 3.4 nM

SMILES: CC(C)(C)c1cc(NC(=O)Nc2ccc(C#Cc3cnn4c(OCCCN5CCOCC5)ccnc34)cc2)no1 [Example 15, 1-(5-(tert-Butyl)isoxazol-3-yl)-3-(4-((7-(3-morpholinopropoxy)pyrazolo[1,5-a]pyrimidin-3-yl)ethynyl)phenyl)urea]
IC50 (FLT3 kinase): 102 nM

SMILES: CC(C)(C)c1cc(NC(=O)Nc2ccc(C#Cc3ccc(OCCCN4CCOCC4)c(C(F)(F)F)c3)cc2)no1 [Example 3, 1-(5-(tert-Butyl)isoxazol-3-yl)-3-(4-((4-(3-morpholinopropoxy)-3-(trifluoromethyl)phenyl)ethynyl)phenyl)urea]
IC50 (FLT3 kinase): 62 nM

SMILES: CC(C)(C)c1cc(NC(=O)Nc2ccc(C#Cc3ccc(OCCCN4CCOCC4)c(Cl)c3)cc2)no1 [Example 2, 1-(5-(tert-Butyl)isoxazol-3-yl)-3-(4-((3-chloro-4-(3-morpholinopropoxy)phenyl)ethynyl)phenyl) urea]
IC50 (FLT3 kinase): 75 nM

Stronger by IC50 (FLT3 kinase), values ahead:

IC50 (FLT3 kinase): 39 nM
IC50 (MV-4-11 cell): 5.2 nM
T1/2 ([1]; po, 5 mg/kg): 5.86 h
AUC(0-inf) ([1]; rat, plasma, iv, 2 mg/kg): 6940 ng·h/mL
AUC(0-t) ([1]; rat, plasma, iv, 2 mg/kg): 6570 ng·h/mL
Tmax ([1]; rat, plasma, iv, 2 mg/kg): 0.08 h
half-life ([1]; rat, plasma, iv, 2 mg/kg): 6.23 h
Cmax ([1]; rat, plasma, iv, 2 mg/kg, read-out: Cmax): 2690 ng/mL
Vd ([1]; rat, plasma, iv, 2 mg/kg): 1.83 L/kg
bioavailability ([1]; rat, plasma): 69.3%
AUC(0-inf) ([1]; rat, plasma, po, 5 mg/kg): 12000 ng·h/mL
AUC(0-t) ([1]; rat, plasma, po, 5 mg/kg): 11300 ng·h/mL
Tmax ([1]; rat, plasma, po, 5 mg/kg): 2.67 h
Cmax ([1]; rat, plasma, po, 5 mg/kg, read-out: Cmax): 1370 ng/mL
SMILES: CC(C)(C)c1cc(NC(=O)Nc2ccc(C#Cc3ccc(OCCCN4CCOCC4)cc3F)cc2)no1 [Example 4, 1-(5-(tert-Butyl)isoxazol-3-yl)-3-(4-((2-fluoro-4-(3-morpholinopropoxy)phenyl)ethynyl)phenyl) urea]

IC50 (FLT3 kinase): 28 nM
IC50 (MV-4-11 cell): 1.6 nM
SMILES: CN1CCN(CCOc2ccc(C#Cc3ccc(NC(=O)Nc4cc(C(C)(C)C)on4)cc3)cc2)CC1 [Example 12, 1-(5-(tert-Butyl)isoxazol-3-yl)-3-(4-((4-(2-(4-methylpiperazin-1-yl)ethoxy)phenyl)ethynyl)phenyl)urea]

IC50 (FLT3 kinase): 23 nM
IC50 (MV-4-11 cell): 2.4 nM
SMILES: CN1CCN(CCCOc2ccc(C#Cc3ccc(NC(=O)Nc4cc(C(C)(C)C)on4)cc3)cc2)CC1 [Example 13, 1-(5-(tert-Butyl)isoxazol-3-yl)-3-(4-((4-(3-(4-methylpiperazin-1-yl)propoxy)phenyl)ethynyl)phenyl)urea]
